Values joined by “and” are separate entries in the source; they are usually repeats but may differ in a detail not shown here. Equal values may be shown once. Toxic doses and inconclusive results are not listed.
Tested on: BDF1 mice, P388 leukemia ip, median survival T/C
Experiment: NCI In Vivo Anticancer Drug Screen. Data for tumor model P388 Leukemia (intraperitoneal) in B6D2F1 (BDF1) mice
Details: endpoint: median survival time, higher = longer survival
Procedure, shortened: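 T/C = treated-group survival ÷ vehicle-control survival; tumour transplanted into mice before dosing.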

[1] = dose: 50.0 mg/kg/injection, schedule: Q01DX009 (ip), vehicle: saline with Tween-80
[2] = dose: 100.0 mg/kg/injection, schedule: Q01DX009 (ip), vehicle: saline with Tween-80
[3] = dose: 200.0 mg/kg/injection, schedule: Q01DX009 (ip), vehicle: saline with Tween-80
[4] = dose: 100.0 mg/kg/injection, schedule: Q04DX003 (ip), vehicle: saline with Tween-80
[5] = dose: 200.0 mg/kg/injection, schedule: Q04DX003 (ip), vehicle: saline with Tween-80
[6] = dose: 25.0 mg/kg/injection, schedule: Q01DX009 (ip), vehicle: saline

## O=[N+]([O-])c1ccc(S(=O)c2ccc([N+](=O)[O-])c3nonc23)cc1 (stereo unspecified)
dose: 15.0 mg/kg/injection, schedule: Q01DX009 (ip), vehicle: saline with Tween-80
  T/C: 90 % of control
dose: 30.0 mg/kg/injection, schedule: Q01DX009 (ip), vehicle: saline with Tween-80
  T/C: 97 % of control

## CCCCCSC(=S)N(C)NC(=O)c1ccccn1
[1]
  T/C: 103 % of control
[2]
  T/C: 101 % of control
[3]
  T/C: 100 % of control

## CCN(CC)C(=O)c1ccncc1
dose: 100.0 mg/kg/injection, schedule: Q04DX003 (ip), vehicle: saline
  T/C: 109 % of control
dose: 200.0 mg/kg/injection, schedule: Q04DX003 (ip), vehicle: saline
  T/C: 100 % of control

## C=C(Cl)c1c(C)cc(C)c(CC#N)c1C
dose: 12.5 mg/kg/injection, schedule: Q04DX003 (ip), vehicle: DMSO
  T/C: 100 % of control
dose: 25.0 mg/kg/injection, schedule: Q04DX003 (ip), vehicle: DMSO
  T/C: 113 % of control
dose: 50.0 mg/kg/injection, schedule: Q04DX003 (ip), vehicle: DMSO
  T/C: 100 % of control

## CCC(=O)O[C@H]1CC[C@H]2[C@@H]3C[C@H](F)C4=CC(=O)CC[C@]4(C)[C@H]3CC[C@]12C
[4]
  T/C: 95 % of control
[5]
  T/C: 95 % of control
dose: 400.0 mg/kg/injection, schedule: Q01DX009 (ip), vehicle: saline sonified
  T/C: 109 % of control
dose: 400.0 mg/kg/injection, schedule: Q04DX003 (ip), vehicle: saline with Tween-80
  T/C: 109 % of control

## CCOC(=O)/C=C(/C)Sc1cc(O)c2ccccc2c1O
dose: 1.56 mg/kg/injection, schedule: Q01DX009 (ip), vehicle: saline with Tween-80
  T/C: 101 % of control and 124 % of control
dose: 3.13 mg/kg/injection, schedule: Q01DX009 (ip), vehicle: saline with Tween-80
  T/C: 119 % of control and 120 % of control
dose: 6.25 mg/kg/injection, schedule: Q01DX009 (ip), vehicle: saline with Tween-80
  T/C: 124 % of control
dose: 12.5 mg/kg/injection, schedule: Q01DX009 (ip), vehicle: saline with Tween-80
  T/C: 114 % of control

## CCCC(CCC)(C(N)=O)C(=O)O
dose: 50.0 mg/kg/injection, schedule: Q01DX001 (ip), vehicle: Klucel (hydroxypropylcellulose) (HPC)
  T/C: 94 % of control
dose: 100.0 mg/kg/injection, schedule: Q01DX001 (ip), vehicle: Klucel (hydroxypropylcellulose) (HPC)
  T/C: 100 % of control
dose: 200.0 mg/kg/injection, schedule: Q01DX001 (ip), vehicle: Klucel (hydroxypropylcellulose) (HPC)
  T/C: 122 % of control

## Clc1ncn[nH]1
dose: 100.0 mg/kg/injection, schedule: Q01DX001 (ip), vehicle: saline sonified
  T/C: 120 % of control
dose: 200.0 mg/kg/injection, schedule: Q01DX001 (ip), vehicle: saline sonified
  T/C: 112 % of control
dose: 400.0 mg/kg/injection, schedule: Q01DX001 (ip), vehicle: saline sonified
  T/C: 120 % of control

## CCc1nnc2sc3c(Cl)c4nn5c(CC)nnc5sc4c(Cl)c3nn12
[1]
  T/C: 114 % of control
[2]
  T/C: 118 % of control
[3]
  T/C: 98 % of control

## COC(=O)C1CCN(Cc2c[nH]c3ccccc23)CC1
dose: 12.5 mg/kg/injection, schedule: Q04DX003 (ip), vehicle: saline with Tween-80
  T/C: 96 % of control
dose: 25.0 mg/kg/injection, schedule: Q04DX003 (ip), vehicle: saline with Tween-80
  T/C: 96 % of control
dose: 50.0 mg/kg/injection, schedule: Q04DX003 (ip), vehicle: saline with Tween-80
  T/C: 111 % of control
[4]
  T/C: 102 % of control

## CN(C)c1ccc2c(c1)Cc1cc(N=C3C=CC(=O)O3)ccc1-2
dose: 1.56 mg/kg/injection, schedule: Q01DX009 (ip), vehicle: Klucel (hydroxypropylcellulose) (HPC)
  T/C: 109 % of control
dose: 3.12 mg/kg/injection, schedule: Q01DX009 (ip), vehicle: Klucel (hydroxypropylcellulose) (HPC)
  T/C: 100 % of control
dose: 6.25 mg/kg/injection, schedule: Q01DX009 (ip), vehicle: Klucel (hydroxypropylcellulose) (HPC)
  T/C: 90 % of control
[6]
  T/C: 92 % of control
dose: 50.0 mg/kg/injection, schedule: Q01DX009 (ip), vehicle: saline
  T/C: 100 % of control

## COc1cc2cc(c1Cl)N(C)C(=O)CC(OC(=O)C(F)(F)F)C1(C)OC1C(C)C1CC(O)(NC(=O)O1)C(OC)C=C/C=C(\C)C2 (stereo unspecified)
dose: 0.8 micrograms/kg/injection, schedule: Q01DX009 (ip), vehicle: saline + alcohol
  T/C: 110 % of control
dose: 1.5 micrograms/kg/injection, schedule: Q01DX009 (ip), vehicle: saline + alcohol
  T/C: 100 % of control
dose: 1.8 micrograms/kg/injection, schedule: Q01DX009 (ip), vehicle: saline + alcohol
  T/C: 107 % of control
dose: 3.1 micrograms/kg/injection, schedule: Q01DX009 (ip), vehicle: saline + alcohol
  T/C: 98 % of control and 100 % of control
dose: 6.2 micrograms/kg/injection, schedule: Q01DX009 (ip), vehicle: saline + alcohol
  T/C: 98 % of control and 108 % of control
dose: 12.5 micrograms/kg/injection, schedule: Q01DX009 (ip), vehicle: saline + alcohol
  T/C: 96 % of control and 120 % of control
dose: 25.0 micrograms/kg/injection, schedule: Q01DX009 (ip), vehicle: saline + alcohol
  T/C: 96 % of control
dose: 50.0 micrograms/kg/injection, schedule: Q01DX009 (ip), vehicle: saline + alcohol
  T/C: 107 % of control
dose: 100.0 micrograms/kg/injection, schedule: Q01DX009 (ip), vehicle: saline + alcohol
  T/C: 91 % of control and 108 % of control
dose: 200.0 micrograms/kg/injection, schedule: Q01DX009 (ip), vehicle: saline + alcohol
  T/C: 91 % of control
dose: 400.0 micrograms/kg/injection, schedule: Q01DX009 (ip), vehicle: saline + alcohol
  T/C: 117 % of control

## CC(C)CSP(=S)(c1cc(Cl)ccc1Cl)c1cc(Cl)ccc1Cl
dose: 50.0 mg/kg/injection, schedule: Q01DX009 (ip), vehicle: other
  T/C: 102 % of control
dose: 100.0 mg/kg/injection, schedule: Q01DX009 (ip), vehicle: other
  T/C: 101 % of control
dose: 200.0 mg/kg/injection, schedule: Q01DX009 (ip), vehicle: other
  T/C: 105 % of control

## C[C@H]1/C(=C/C(=O)OCCN(C)C)CC[C@H]2[C@H]1C(=O)C[C@H]1C(C)(C)[C@@H](O)CC[C@]21C
dose: 4.0 mg/kg/injection, schedule: Q01DX010 (ip), vehicle: saline
  T/C: 100 % of control
dose: 8.0 mg/kg/injection, schedule: Q01DX010 (ip), vehicle: saline
  T/C: 100 % of control
dose: 16.0 mg/kg/injection, schedule: Q01DX010 (ip), vehicle: saline
  T/C: 104 % of control
dose: 32.0 mg/kg/injection, schedule: Q01DX010 (ip), vehicle: saline
  T/C: 95 % of control and 104 % of control

## CCCCSc1ncnc2nc[nH]c12
[4]
  T/C: 104 % of control
[5]
  T/C: 100 % of control

## Nc1ncnc2nc[nH]c12.[Cl][Pt][Cl]
dose: 100.0 mg/kg/injection, schedule: Q01DX009 (ip), vehicle: water
  T/C: 114 % of control
dose: 100.0 mg/kg/injection, schedule: Q04DX003 (ip), vehicle: water
  T/C: 93 % of control
dose: 200.0 mg/kg/injection, schedule: Q01DX009 (ip), vehicle: water
  T/C: 118 % of control
dose: 200.0 mg/kg/injection, schedule: Q04DX003 (ip), vehicle: water
  T/C: 98 % of control
dose: 400.0 mg/kg/injection, schedule: Q01DX009 (ip), vehicle: water
  T/C: 104 % of control
dose: 400.0 mg/kg/injection, schedule: Q04DX003 (ip), vehicle: water
  T/C: 98 % of control

## O=C(C=C(C(F)(F)F)C(F)(F)F)c1ccc(Br)cc1
dose: 5.56 mg/kg/injection, schedule: Q01DX009 (ip), vehicle: other
  T/C: 113 % of control
dose: 8.33 mg/kg/injection, schedule: Q01DX009 (ip), vehicle: other
  T/C: 113 % of control
dose: 12.5 mg/kg/injection, schedule: Q01DX009 (ip), vehicle: other
  T/C: 109 % of control
dose: 18.7 mg/kg/injection, schedule: Q01DX009 (ip), vehicle: other
  T/C: 109 % of control

## CC1(C)OCC(C2OC3OC(C)(C)OC3C2O)O1 (stereo unspecified)
dose: 20.0 mg/kg/injection, schedule: Q01DX009 (ip), vehicle: saline
  T/C: 107 % of control
dose: 40.0 mg/kg/injection, schedule: Q01DX009 (ip), vehicle: saline
  T/C: 109 % of control
dose: 80.0 mg/kg/injection, schedule: Q01DX009 (ip), vehicle: saline
  T/C: 108 % of control

## CC(C)(C)c1ccc2c(cc[n+]3ccccc23)c1
dose: 1.56 mg/kg/injection, schedule: Q01DX005 (ip), vehicle: saline with Tween-80
  T/C: 115 % of control
dose: 3.13 mg/kg/injection, schedule: Q01DX005 (ip), vehicle: saline with Tween-80
  T/C: 123 % of control

## Nc1ccc2cc3ccc(N)cc3nc2c1
[6]
  T/C: 86 % of control

## CN=C(NC(C)C)c1ccc(NC(=O)c2ccc(C(=O)Nc3ccc(C(=NC)NC(C)C)cc3)cc2)cc1
dose: 16.0 mg/kg/injection, schedule: Q04DX003 (ip), vehicle: saline with Tween-80
  T/C: 118 % of control
dose: 42.2 mg/kg/injection, schedule: Q04DX003 (ip), vehicle: saline with Tween-80
  T/C: 150 % of control
dose: 64.0 mg/kg/injection, schedule: Q04DX003 (ip), vehicle: saline with Tween-80
  T/C: 150 % of control
dose: 96.0 mg/kg/injection, schedule: Q04DX003 (ip), vehicle: saline with Tween-80
  T/C: 150 % of control

— PubChem BioAssay AID328 (DTP/NCI, 2004)
